The results in this text go back to BindingDB's records for doi:10.1016/j.bmcl.2006.07.014 (Glaxosmithkline, 2006).

The assay concerns the target T1, Dimer of Gag-Pol polyprotein [501-599,Q508K,L534I,L564I,C568A,C596A] (Human immunodeficiency virus 1, UniProt P03367, C568A/C596A/L534I/L564I/Q508K).
T1 construct: 501-599
The experiment in a line: Protease Inhibition Assay. To be noted: pH 6.4; 25 °C. How it is done:
The Ki values were determined using fluorogenic substrate, 2-(aminobenzoyl)-Thr-Ile-Nle-Phe(p-NO2)-Gln-ArgNH2. A standard curve relating changes in fluorescent intensity to changes in concentration of product was used to convert fluorescent changes into molar velocities. The amount of cleavage was determined by HPLC.

As a reminder, the Ki is a measure of affinity in units of concentration, obtained from inhibition or displacement. Turning to `COc1ccc(S(=O)(=O)N(CC2CCCC2)C[C@@H](O)CN2C(=O)COC[C@@H]2Cc2ccccc2)cc1`, the Ki turned out to be 1000 nM.

Compound `COc1ccc(S(=O)(=O)N(CC2CCCC2)C[C@@H](O)CN2C(=O)C3(CCOCC3)OC[C@@H]2Cc2ccccc2)cc1` [(2S)-3-[(3S)-3-benzyl-5-oxo-1,9-dioxa-4-azaspiro[5.5]undecan-4-yl]-N-(cyclopentylmethyl)-2-hydroxy-N-(4-methoxyphenyl)propane-1-sulfonamido] had an inhibitory constant (Ki) of 23 nM.
